From patent US20080069809A1, “Compositions and methods for the diagnosis and treatment of cancer” (priority 2006, published 2008)

Columns and labels:
K562 = assay: Differentiation (CD11b expression) in K562 cells; assay type: cell-based
Method: (§1) The myeloid leukemic cell lines HL60, NB60, NB4, U937, K562 and KG1a were all grown in RPMI 1640 medium (Life Technologies, Paisley, United Kingdom) supplemented with 10% v/v fetal calf serum (Sear Laboratories International Crawley, United Kingdom), 100 U/mL penicillin, and 100 μg/mL streptomycin (Sigma Aldrich, Poole, United Kingdom) at 37° C. and 5% v/v CO2. AML blasts were isolated from patient bone marrow aspirates and peripheral blood of eight patients at diagnosis or relapse. Patients were not receiving AML therapy at time of sampling. […] Blast purity ranged from 80% to 95%, as assessed by expression of CD34. […]
(§2) Cell differentiation was determined by staining of cells with anti-CD11b antibody as a general early marker of myeloid differentiation. In studies with HL60 cells, PEP005-treated and 20 nM phorbol myristate (PMA)-treated (Sigma Aldrich) cells were also assessed for their ability to phagocytose complement-coated yeast, a marker of a fully differentiated myeloid cell, as previously described (Toksoz et al, Leukemia Res 6:491-498, 1982). […] Images were captured with a SPOT2 cameria (Diagnostic Instructions, Sterling Heights, Mich.) and analyzed using Image-Pro 4.0 software (Media Cybernetics, Silver Spring, Md.).

protein kinase C (PKC) = conditions: Kedei et al 2004; cited from earlier work
Normal CD34+ myeloblasts = assay: Apoptosis / cytotoxicity in normal CD34+ myeloblasts; assay type: cell-based, human
Method: as §1
(§3) To determine the effects of ingenol-3-angelate (PEP005), cells were incubated for up to 5 days with medium alone or PEP005 at a range of concentrations from 0.2 nM to 20 μM. […] Apoptosis and differentiation were assessed after 1 to 5 days.
Cell differentiation was determined by staining of cells with anti-CD11b antibody as a general early marker of myeloid differentiation. In studies with HL60 cells, PEP005-treated and 20 nM phorbol myristate (PMA)-treated (Sigma Aldrich) cells were also assessed for their ability to phagocytose complement-coated yeast, a marker of a fully differentiated myeloid cell, as previously described (Toksoz et al, Leukemia Res 6:491-498, 1982). […]

HL60 = assay: Apoptosis (sub-G1 DNA by FACS, caspase-3 activation) in HL60 leukemic cells; assay type: cell-based
Method: (§4) The myeloid leukemic cell lines HL60, NB60, NB4, U937, K562 and KG1a were all grown in RPMI 1640 medium (Life Technologies, Paisley, United Kingdom) supplemented with 10% v/v fetal calf serum (Sear Laboratories International Crawley, United Kingdom), 100 U/mL penicillin, and 100 μg/mL streptomycin (Sigma Aldrich, Poole, United Kingdom) at 37° C. and 5% v/v CO2. AML blasts were isolated from patient bone marrow aspirates and peripheral blood of eight patients at diagnosis or relapse. Patients were not receiving AML therapy at time of sampling. Blasts were isolated by Ficoll density centrifugation and were cultured in serum-free insulin transferrin selenium-positive (ITS+) medium (Life Technologies) containing 300 ng/mL stem cell factor (SCF) and 10 ng/mL interleukin 3 (IL3; R and D Systems, Abingdon, United Kingdom) and antibiotics. […] Normal myeloblasts were isolated from cord blood or adult mobilized peripheral blood. Briefly, CD34^+ cells were indirectly selected from the mononuclear cell preparations using antibody-coated magnetic beads (Miltenyi Biotec, United Kingdom).
To determine the effects of ingenol-3-angelate (PEP005), cells were incubated for up to 5 days with medium alone or PEP005 at a range of concentrations from 0.2 nM to 20 μM. PEP005 was extracted from Euphorbia peplus and supplied as a 98.5% pure preparation by Peplin Limited (Brisbane, Australia) as a dry pellet and was made up to a stock of […] in acetone on a weekly basis. Stocks were stored at 4° C. and diluted into medium when required. Final acetone concentration was never more than 0.1% v/v. Apoptosis and differentiation were assessed after 1 to 5 days.

KG1a = assay: Differentiation (CD11b expression) in KG1a cells; assay type: cell-based
Method: The myeloid leukemic cell lines HL60, NB60, NB4, U937, K562 and KG1a were all grown in RPMI 1640 medium (Life Technologies, Paisley, United Kingdom) supplemented with 10% v/v fetal calf serum (Sear Laboratories International Crawley, United Kingdom), 100 U/mL penicillin, and 100 μg/mL streptomycin (Sigma Aldrich, Poole, United Kingdom) at 37° C. and 5% v/v CO2. AML blasts were isolated from patient bone marrow aspirates and peripheral blood of eight patients at diagnosis or relapse. Patients were not receiving AML therapy at time of sampling. Blasts were isolated by Ficoll density centrifugation and were cultured in serum-free insulin transferrin selenium-positive (ITS+) medium (Life Technologies) containing 300 ng/mL stem cell factor (SCF) and 10 ng/mL interleukin 3 (IL3; R and D Systems, Abingdon, United Kingdom) and antibiotics. Blast purity ranged from 80% to 95%, as assessed by expression of CD34. Normal myeloblasts were isolated from cord blood or adult mobilized peripheral blood. Briefly, CD34^+ cells were indirectly selected from the mononuclear cell preparations using antibody-coated magnetic beads (Miltenyi Biotec, United Kingdom).
as §2, with “1982). The ingestion of three or more yeasts was taken as a positive result. In normal cord blood or adult bone marrow myeloblasts, loss of CD34 was taken as a marker of differentiation. Isotype-matched controls were used and all antibodies were from DAKO (Cambridge, United Kingdom).” for “1982).”

NB4 = assay: Apoptosis (sub-G1 DNA by FACS) in NB4 leukemic cells; assay type: cell-based
Method: as §4, §3

PKC-δ = target: T1, PKC-δ (Homo sapiens, UniProt Q05655); assay: PKC-δ activation by translocation (cell fractionation, Western blotting) in HL60 cells; assay type: cell-based; conditions: 10 minutes
T1 construct: endogenous in cells; host or cells: HL60
T1 sequence (Q05655 whole entry): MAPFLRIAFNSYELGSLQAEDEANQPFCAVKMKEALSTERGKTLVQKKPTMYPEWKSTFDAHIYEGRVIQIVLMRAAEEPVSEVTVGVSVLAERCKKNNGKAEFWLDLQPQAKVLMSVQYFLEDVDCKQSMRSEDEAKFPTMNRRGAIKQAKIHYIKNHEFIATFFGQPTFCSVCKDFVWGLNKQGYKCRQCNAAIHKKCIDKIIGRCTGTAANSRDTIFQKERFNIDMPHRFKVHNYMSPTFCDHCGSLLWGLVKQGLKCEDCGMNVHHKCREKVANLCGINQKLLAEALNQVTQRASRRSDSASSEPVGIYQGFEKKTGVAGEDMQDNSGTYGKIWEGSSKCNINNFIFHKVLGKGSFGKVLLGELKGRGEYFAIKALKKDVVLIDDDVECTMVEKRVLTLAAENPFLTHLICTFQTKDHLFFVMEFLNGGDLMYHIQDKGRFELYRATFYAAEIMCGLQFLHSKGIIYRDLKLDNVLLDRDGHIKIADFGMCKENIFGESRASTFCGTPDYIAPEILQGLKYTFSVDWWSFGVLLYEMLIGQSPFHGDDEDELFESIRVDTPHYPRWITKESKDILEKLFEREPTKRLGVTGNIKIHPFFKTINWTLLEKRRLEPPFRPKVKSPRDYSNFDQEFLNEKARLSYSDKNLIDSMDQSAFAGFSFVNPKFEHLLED
Method: PKC translocates from the soluble to the particulate fraction of cells when activated and this method was used to assess activation of PKC-δ by PEP005 and PMA. Briefly, cells were incubated for 10 minutes in medium alone or 20 nM PEP005 or 20 nM PMA, washed twice in phosphate buffered saline (PBS) and then lysed by homogenization in hypotonic lysis buffer in the absence of detergent. Lysis was checked using trypan blue uptake. Nuclei were isolated by centrifugation at 1000 g for 10 minutes. Centrifugation at 100,000 g for 45 minutes at 4° C. was used to isolate the cytosol (supernatant) and cell membrane (pellet) fractions. All were taken up in SDS sample buffer and analyzed for PKC-δ by Western blotting.

[1] = sub-G1 DNA by FACS, treated 5 days
[2] = within the first 1 to 2 days of treatment

## C/C=C(/C)C(=O)O[C@H]1C(C)=C[C@]23C(=O)[C@@H](C=C(CO)[C@@H](O)[C@]12O)[C@H]1[C@@H](C[C@H]3C)C1(C)C [PEP005, ingenol-3-angelate]
K562
  CD11b expression: did not increase expression of CD11b
Protein kinase C (PKC)
  activation of protein kinase C: potent activator
Normal CD34+ myeloblasts; concentrations of PEP005 effective against cell lines and AML blast cells, cord blood and adult marrow myeloblasts
  induction of apoptosis: Induction of apoptosis was not seen
Normal CD34+ myeloblasts; even at 200 nM PEP005
  cytotoxicity: cytotoxicity did not occur
HL60; after 3 days of treatment, PMA 20 nM
  apoptosis (caspase-3 activity): apoptosis was the dominant effect
HL60; [1]
  PEP005 concentration with optimal effect, apoptosis: 20 nM
HL60; [2]
  fraction of cells entering apoptosis (kinetic study): up to half of the cells entering apoptosis
KG1a; agent alone
  differentiation response: did not respond
KG1a; even at 20 μM PEP005
  CD11b expression: did not enter apoptosis or show CD11b expression
NB4; [1]
  PEP005 concentration with optimal effect, apoptosis: 20 nM
NB4; [2]
  fraction of cells entering apoptosis (kinetic study): up to half of the cells entering apoptosis
PKC-δ; 20 nM PEP005 or 20 nM PMA
  site of initial PKC-δ translocation: to the nuclear and cell membranes
PKC-δ; 20 nM
  activation of PKC-δ (translocation from cytosol to membrane fraction): induced activation of PKC-δ
